Key:
[1] = target: Ribosomal protein S6 kinase alpha-4 (Homo sapiens) (UniProt O75676); test: Inhibition of human full length MSK2 expressed in baculovirus assessed as substrate phosphorylation using fluorescence-labelled peptides as substrate at 8 uM after 90 mins by microfluidic peptide phosphorylation assay
[2] = target: T1, Serine/threonine-protein kinase Nek2 (Homo sapiens) (UniProt P51955); test: Inhibition of human full length NEK2 expressed in baculovirus assessed as substrate phosphorylation using fluorescence-labelled peptides as substrate at 2 uM after 90 mins by microfluidic peptide phosphorylation assay
T1 sequence (whole entry): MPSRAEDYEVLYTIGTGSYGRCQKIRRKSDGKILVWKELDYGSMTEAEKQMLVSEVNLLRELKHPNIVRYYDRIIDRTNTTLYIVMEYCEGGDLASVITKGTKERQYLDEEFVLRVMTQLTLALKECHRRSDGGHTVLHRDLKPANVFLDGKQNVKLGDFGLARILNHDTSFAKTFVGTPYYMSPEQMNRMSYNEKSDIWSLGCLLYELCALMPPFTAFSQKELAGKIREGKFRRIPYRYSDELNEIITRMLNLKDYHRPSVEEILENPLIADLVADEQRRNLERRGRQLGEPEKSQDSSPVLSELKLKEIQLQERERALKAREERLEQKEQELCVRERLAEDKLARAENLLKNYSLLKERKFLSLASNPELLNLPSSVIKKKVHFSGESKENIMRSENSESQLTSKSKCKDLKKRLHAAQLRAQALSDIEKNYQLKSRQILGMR

[3] = target: T2, Interleukin-1 receptor-associated kinase 4 (Homo sapiens) (UniProt Q9NWZ3); test: Inhibition of human IRAK4 catalytic domain expressed in baculovirus assessed as substrate phosphorylation using fluorescence-labelled peptides as substrate at […] after 90 mins by microfluidic peptide phosphorylation assay
T2 sequence (whole entry): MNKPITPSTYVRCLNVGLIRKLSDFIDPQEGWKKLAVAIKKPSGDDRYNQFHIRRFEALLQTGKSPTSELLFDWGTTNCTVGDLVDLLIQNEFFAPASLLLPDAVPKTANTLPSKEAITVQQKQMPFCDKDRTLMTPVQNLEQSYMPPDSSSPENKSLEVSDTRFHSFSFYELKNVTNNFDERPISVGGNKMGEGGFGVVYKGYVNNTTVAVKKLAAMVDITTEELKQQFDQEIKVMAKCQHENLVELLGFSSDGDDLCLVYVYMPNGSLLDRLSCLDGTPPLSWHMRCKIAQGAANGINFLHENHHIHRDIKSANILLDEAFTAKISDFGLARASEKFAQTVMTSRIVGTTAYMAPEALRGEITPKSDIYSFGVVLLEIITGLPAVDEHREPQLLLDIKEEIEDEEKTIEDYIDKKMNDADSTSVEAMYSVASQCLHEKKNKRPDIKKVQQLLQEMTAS

[4] = target: Serine/threonine-protein kinase MARK2 (Homo sapiens) (UniProt Q7KZI7); test: Inhibition of human full length MARK2 expressed in baculovirus assessed as substrate phosphorylation using fluorescence-labelled peptides as substrate at 0.1 uM after 90 mins by microfluidic peptide phosphorylation assay
Chain of Serine/threonine-protein kinase MARK2 (Homo sapiens) (Q7KZI7 whole entry): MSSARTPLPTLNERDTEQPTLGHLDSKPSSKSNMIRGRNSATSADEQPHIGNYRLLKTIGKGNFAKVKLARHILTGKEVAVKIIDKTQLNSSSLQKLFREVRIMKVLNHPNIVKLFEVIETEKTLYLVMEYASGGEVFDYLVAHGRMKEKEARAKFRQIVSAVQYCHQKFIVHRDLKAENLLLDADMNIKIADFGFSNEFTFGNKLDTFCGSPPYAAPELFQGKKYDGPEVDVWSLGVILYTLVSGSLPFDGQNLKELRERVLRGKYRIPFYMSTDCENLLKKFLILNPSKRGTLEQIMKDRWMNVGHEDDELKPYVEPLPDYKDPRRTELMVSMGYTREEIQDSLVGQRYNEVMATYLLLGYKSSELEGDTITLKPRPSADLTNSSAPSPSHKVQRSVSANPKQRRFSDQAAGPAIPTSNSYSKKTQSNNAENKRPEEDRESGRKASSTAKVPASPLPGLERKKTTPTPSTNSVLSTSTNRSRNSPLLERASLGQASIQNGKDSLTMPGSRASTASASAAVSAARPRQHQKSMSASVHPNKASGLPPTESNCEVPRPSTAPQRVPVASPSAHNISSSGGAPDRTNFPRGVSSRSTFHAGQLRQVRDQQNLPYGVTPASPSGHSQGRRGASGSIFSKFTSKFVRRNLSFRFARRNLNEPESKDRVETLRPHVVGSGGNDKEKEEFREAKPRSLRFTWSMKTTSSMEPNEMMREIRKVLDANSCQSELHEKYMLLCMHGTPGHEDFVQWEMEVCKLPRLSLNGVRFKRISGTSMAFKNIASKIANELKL

[5] = target: Ribosomal protein S6 kinase alpha-2 (Homo sapiens) (UniProt Q15349); test: Inhibition of human full length RSK3 expressed in baculovirus assessed as substrate phosphorylation using fluorescence-labelled peptides as substrate at 95 uM after 90 mins by microfluidic peptide phosphorylation assay
Chain of Ribosomal protein S6 kinase alpha-2 (Homo sapiens) (Q15349 whole entry, the tested form may be a part): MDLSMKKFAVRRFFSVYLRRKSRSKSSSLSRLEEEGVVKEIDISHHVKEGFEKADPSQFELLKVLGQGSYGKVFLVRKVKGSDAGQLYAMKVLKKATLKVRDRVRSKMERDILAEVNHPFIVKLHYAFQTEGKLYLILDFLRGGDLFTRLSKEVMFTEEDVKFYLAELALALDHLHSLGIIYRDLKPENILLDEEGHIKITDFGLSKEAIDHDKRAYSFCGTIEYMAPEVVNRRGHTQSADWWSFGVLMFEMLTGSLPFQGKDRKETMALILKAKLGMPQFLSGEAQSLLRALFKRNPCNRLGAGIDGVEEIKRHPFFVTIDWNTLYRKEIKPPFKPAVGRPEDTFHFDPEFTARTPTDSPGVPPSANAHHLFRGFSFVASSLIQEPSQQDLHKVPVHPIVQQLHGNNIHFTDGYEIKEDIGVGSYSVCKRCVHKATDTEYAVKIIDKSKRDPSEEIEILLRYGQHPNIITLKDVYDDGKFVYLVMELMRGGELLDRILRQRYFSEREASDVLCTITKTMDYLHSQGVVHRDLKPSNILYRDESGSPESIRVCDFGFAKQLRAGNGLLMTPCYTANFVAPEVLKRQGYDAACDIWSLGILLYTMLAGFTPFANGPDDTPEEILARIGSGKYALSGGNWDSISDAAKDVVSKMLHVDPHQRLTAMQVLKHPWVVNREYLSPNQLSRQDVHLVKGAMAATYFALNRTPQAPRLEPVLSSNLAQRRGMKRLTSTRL

[6] = test system: Fibroblast growth factor receptor 2 (Homo sapiens), P21802 [N549H]; test: Inhibition of human FGFR2 N549H mutant catalytic domain expressed in baculovirus assessed as substrate phosphorylation using fluorescence-labelled peptides as substrate at 95 uM after 90 mins by microfluidic peptide phosphorylation assay
Chain of Fibroblast growth factor receptor 2 (Homo sapiens), P21802 [N549H] (P21802 whole entry N549H, the tested form may be a part): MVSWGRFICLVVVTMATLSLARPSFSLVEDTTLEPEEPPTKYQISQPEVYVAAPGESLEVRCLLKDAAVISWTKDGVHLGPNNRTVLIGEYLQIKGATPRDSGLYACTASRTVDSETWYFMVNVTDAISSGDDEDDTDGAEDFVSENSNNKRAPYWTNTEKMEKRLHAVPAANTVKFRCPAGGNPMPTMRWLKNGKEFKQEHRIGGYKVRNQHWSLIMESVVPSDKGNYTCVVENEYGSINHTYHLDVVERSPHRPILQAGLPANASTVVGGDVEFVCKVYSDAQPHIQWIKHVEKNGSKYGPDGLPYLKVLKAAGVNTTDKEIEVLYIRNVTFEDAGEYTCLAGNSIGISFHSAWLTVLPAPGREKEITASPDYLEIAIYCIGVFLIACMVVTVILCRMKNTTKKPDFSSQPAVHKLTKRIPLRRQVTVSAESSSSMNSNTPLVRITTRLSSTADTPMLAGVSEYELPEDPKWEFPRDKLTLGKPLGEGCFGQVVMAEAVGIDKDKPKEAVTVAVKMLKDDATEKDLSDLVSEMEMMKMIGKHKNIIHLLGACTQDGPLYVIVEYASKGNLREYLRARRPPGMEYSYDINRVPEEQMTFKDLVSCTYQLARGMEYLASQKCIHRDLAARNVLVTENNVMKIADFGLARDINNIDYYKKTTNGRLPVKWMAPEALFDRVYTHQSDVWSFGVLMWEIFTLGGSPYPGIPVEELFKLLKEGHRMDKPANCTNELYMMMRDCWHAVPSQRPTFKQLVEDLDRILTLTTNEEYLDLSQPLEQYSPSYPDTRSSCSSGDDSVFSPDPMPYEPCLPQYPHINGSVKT

[7] = target: T3, cGMP-dependent protein kinase 1 (Homo sapiens) (UniProt Q13976); test: Inhibition of human full length PKG-1a expressed in baculovirus assessed as substrate phosphorylation using fluorescence-labelled peptides as substrate at 420 uM after 90 mins by microfluidic peptide phosphorylation assay
T3 sequence (whole entry): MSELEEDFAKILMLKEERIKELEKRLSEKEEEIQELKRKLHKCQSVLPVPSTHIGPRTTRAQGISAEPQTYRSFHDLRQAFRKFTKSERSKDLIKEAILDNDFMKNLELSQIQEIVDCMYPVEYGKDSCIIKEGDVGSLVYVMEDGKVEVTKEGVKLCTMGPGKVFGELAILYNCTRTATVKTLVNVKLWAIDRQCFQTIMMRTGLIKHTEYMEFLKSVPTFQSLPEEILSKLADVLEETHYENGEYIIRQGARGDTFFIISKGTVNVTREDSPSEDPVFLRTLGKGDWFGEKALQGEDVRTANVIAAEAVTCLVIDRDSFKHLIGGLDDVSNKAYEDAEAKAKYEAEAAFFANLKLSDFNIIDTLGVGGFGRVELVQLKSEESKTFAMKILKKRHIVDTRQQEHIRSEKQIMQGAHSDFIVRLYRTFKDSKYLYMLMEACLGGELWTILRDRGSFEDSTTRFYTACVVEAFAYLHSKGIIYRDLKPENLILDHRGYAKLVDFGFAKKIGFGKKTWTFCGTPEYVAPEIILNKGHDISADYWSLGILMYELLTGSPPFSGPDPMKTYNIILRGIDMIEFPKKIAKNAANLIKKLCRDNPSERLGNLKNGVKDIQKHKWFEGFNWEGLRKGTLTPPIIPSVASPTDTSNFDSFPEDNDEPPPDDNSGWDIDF

[8] = target: T4, Protein kinase C zeta type (Homo sapiens) (UniProt Q05513); test: Inhibition of human full length PKC zeta expressed in baculovirus assessed as substrate phosphorylation using fluorescence-labelled peptides as substrate at 420 uM after 90 mins by microfluidic peptide phosphorylation assay
T4 sequence (whole entry): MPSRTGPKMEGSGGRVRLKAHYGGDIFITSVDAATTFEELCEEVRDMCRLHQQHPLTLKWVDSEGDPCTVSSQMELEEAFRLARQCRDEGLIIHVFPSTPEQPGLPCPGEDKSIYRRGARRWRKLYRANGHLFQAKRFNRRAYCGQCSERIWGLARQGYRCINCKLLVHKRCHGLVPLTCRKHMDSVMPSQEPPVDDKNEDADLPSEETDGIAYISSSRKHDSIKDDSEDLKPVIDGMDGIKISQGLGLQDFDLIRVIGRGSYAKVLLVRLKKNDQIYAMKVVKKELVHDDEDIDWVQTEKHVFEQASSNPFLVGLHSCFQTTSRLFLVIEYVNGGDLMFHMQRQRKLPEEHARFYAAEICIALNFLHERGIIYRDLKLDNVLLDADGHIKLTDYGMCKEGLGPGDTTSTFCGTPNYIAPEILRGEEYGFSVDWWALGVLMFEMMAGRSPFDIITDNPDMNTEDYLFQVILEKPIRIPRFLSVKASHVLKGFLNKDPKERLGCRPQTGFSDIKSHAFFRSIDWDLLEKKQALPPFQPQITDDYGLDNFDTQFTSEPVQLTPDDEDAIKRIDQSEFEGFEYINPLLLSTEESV

Chain of Ribosomal protein S6 kinase alpha-4 (Homo sapiens) (O75676 whole entry, looked up): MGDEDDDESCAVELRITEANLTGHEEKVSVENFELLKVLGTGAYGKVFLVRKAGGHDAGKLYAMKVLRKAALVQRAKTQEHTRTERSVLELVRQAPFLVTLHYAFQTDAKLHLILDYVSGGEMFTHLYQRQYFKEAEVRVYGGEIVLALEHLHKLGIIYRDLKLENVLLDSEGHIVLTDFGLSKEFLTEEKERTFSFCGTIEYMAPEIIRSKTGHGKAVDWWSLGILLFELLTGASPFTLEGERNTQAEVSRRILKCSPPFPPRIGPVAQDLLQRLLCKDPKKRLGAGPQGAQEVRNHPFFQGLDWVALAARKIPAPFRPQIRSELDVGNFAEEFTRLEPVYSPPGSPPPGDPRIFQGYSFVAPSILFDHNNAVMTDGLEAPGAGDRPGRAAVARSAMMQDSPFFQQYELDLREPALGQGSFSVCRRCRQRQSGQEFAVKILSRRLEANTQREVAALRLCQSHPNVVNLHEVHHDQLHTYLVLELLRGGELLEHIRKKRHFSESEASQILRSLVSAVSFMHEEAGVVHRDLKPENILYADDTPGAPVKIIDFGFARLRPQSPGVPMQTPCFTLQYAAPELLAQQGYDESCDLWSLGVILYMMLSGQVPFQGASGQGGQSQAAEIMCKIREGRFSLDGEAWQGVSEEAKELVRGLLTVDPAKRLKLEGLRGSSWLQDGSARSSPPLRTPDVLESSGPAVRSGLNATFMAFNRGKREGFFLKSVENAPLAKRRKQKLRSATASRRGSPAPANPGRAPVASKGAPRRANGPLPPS

## NCC1CCN(c2ncnc3[nH]ccc23)CC1
[1]
  inhibition: 50%

## NC1CCN(c2ncnc3[nH]ccc23)CC1
[2]
  inhibition: 0%

## COC(=O)c1cnc(Nc2cnc(C#N)cn2)cc1NCC1CCNCC1
[3]
  inhibition: 5.5%

## C[C@H](CN(C)C)Oc1nc(Nc2cc3cccc(Cl)c3cn2)cnc1C#N
[4]
  inhibition: 2%

## NCCc1ccc(-c2ncnc3[nH]cnc23)cc1
[5]
  inhibition: 89%
[6]
  inhibition: 40%

## c1nc(N2CCOCC2)c2nc[nH]c2n1
[7]
  inhibition: 98%
[8]
  inhibition: 46%
